Measured values as given in publication PMC4457358, “Structure–activity studies in the development of a hydrazone based inhibitor of adipose-triglyceride lipase (ATGL)” (Bioorganic & Medicinal Chemistry, 2015).
Read-outs that look alike come from different tables or passages of the source.

How the values were obtained:
murine ATGL = target: T1, murine ATGL (Mus musculus, UniProt Q8BJ56); assay: Triglyceride hydrolase activity assay with COS7-cell lysate overexpressing recombinant murine ATGL, radiolabelled triolein substrate; format: biochemical; design: IC50 (%): unit not given here; conditions: for inhibition at 200 µM: 1 h, read-out: I200 (%); for biological activity against ATGL (in words) / IC50: COS7-cell lysate overexpressing murine ATGL; for IC50 (%): COS7-cell lysate overexpressing recombinant murine ATGL, increasing inhibitor concentrations;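 as to all read-outs here: radioactivity from the triolein substrate quantified by liquid scintillation counting after phase separation, reflecting triglyceride hydrolase activity of murine ATGL in lysates of transfected COS-7 cells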
T1 construct: expressed in transfected cells; host or cells: COS-7 (ATCC CRL-1651), transient transfection with Metafectene; crude lysate after 1000 x g spin
T1 sequence (Q8BJ56 1-486): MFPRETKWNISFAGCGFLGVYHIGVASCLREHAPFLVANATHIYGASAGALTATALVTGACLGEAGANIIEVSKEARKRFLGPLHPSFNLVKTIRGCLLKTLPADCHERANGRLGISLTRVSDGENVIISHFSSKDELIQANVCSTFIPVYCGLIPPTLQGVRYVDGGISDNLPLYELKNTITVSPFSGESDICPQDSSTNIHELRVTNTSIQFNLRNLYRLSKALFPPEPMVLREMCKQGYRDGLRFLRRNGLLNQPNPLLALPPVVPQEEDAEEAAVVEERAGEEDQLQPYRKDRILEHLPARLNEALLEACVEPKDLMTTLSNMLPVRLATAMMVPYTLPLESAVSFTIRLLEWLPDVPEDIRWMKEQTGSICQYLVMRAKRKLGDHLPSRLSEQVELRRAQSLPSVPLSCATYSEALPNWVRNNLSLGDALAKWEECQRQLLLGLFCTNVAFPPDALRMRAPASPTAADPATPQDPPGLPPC

[1] = ATGL-inhibition efficiency at 200 μM inhibitor

| Compound | inhibition at 200 µM (murine ATGL; [1]) [%] | melting point | further results |
| --- | --- | --- | --- |
| COc1ccc(NC(=O)N2CCN(c3ccccc3)CC2)cc1OC [Compound 12, N-(3,4-Dimethoxyphenyl)-4-phenylpiperazin-1-carboxamide] | 40 | 122 to 125 °C | biological activity against ATGL (in words) (murine ATGL): no biological activity |
| N#Cc1ccc(/C=N/N2CCN(c3ccccc3)CC2)cc1 [Compound 1s, (E)-4-((4-Phenylpiperazin-1-ylimino)methyl)benzonitrile] | 76 |  | IC50 (murine ATGL): 50 µM |
| Oc1ccc(/C=N/N2CCCN(c3ccccc3)CC2)c(O)c1 [Compound 3j, (E)-4-((4-Phenyl-1,4-diazepan-1-ylimino)methyl)benzene-1,3-diol] | 87 |  |  |
| COc1ccc(/C=N/N2CCN(c3ccccc3)CC2)cc1OC [Compound 1b, (E)-N-(3,4-Dimethoxybenzylidene)-4-phenylpiperazin-1-amine] | 65 | 153 to 154 °C |  |
| Oc1ccc(/C=N/N2CCN(c3ccncc3)CC2)c(O)c1 [Compound 3a, (E)-4-((4-(Pyridine-4-yl)piperazin-1-ylimino)methyl)benzene-1,3-diol] | 19 | 270 to 273 °C (dec.) |  |
| Oc1ccc(/C=N/N2CCC(Cc3ccccc3)CC2)c(O)c1 [Compound 3i, (E)-4-((4-benzylpiperidine-1-ylimino)methyl)benzene-1,3-diol] | 26 | 138 to 141 °C |  |
| Cc1ccc(/C=N/N2CCN(c3ccccc3)CC2)cc1 [Compound 1t, (E)-N-(4-Methylbenzylidene)-4-phenylpiperazin-1-amine] | 22 | 184 to 186 °C | biological activity against ATGL (in words) (murine ATGL): inactive |
| COc1cc(OC)c(OC)cc1/C=N/N1CCN(c2ccccc2)CC1 [Compound 1k, (E)-4-Phenyl-N-(2,4,5-trimethoxybenzyliden)piperazin-1-amine] | 43 | 153 to 156 °C |  |
| COc1cc(/C=N/N2CCN(c3ccccc3)CC2)ccc1O [Compound 1d, (E)-2-Methoxy-4-((4-phenylpiperazin-1-ylimino)methyl)phenol] | 82 |  |  |
| CC(=O)Nc1ccc(/C=N/N2CCN(c3ccccc3)CC2)cc1 [Compound 1v, (E)-N-(4-((4-Phenylpiperazin-1-ylimino)methyl)phenyl)acetamide] | 14 |  |  |
| Cc1cccc(N2CCN(/N=C/c3ccc(O)cc3O)CC2)c1 [Compound 3c, (E)-4-((4-m-Tolylpiperazin-1-ylimino)methyl)benzene-1,3-diol] | 44 |  |  |
| Fc1ccc(/C=N/N2CCN(c3ccccc3)CC2)cc1F [Compound 1m, (E)-N-(3,4-Difluorobenzylidene)-4-phenylpiperazin-1-amine] | 67 | 152 to 154 °C | IC50 (murine ATGL): 75 µM |
| Clc1ccc(/C=N/N2CCN(c3ccccc3)CC2)cc1Cl [Compound 1n, (E)-N-(3,4-Dichlorobenzylidene)-4-phenylpiperazin-1-amine] | 20 | 176 to 178 °C | biological activity against ATGL (in words) (murine ATGL): inactive |
| C(=N\N1CCN(c2ccccc2)CC1)/c1ccc2ccccc2n1 [Compound 2i, (E)-4-Phenyl-N-(quinoline-2-ylmethylen)-piperazin-1-amine] | 8 | 210 to 212 °C |  |
| (E)-N-(4-Phenoxybenzylidene)-4-phenylpiperazin-1-amine [Compound 1j] |  |  | I200 (%) (murine ATGL; [1]): 24%; IC50 (%) (murine ATGL): >200 |
| C(=N\N1CCN(c2ccccc2)CC1)/c1ccccn1 [Compound 2e, (E)-4-Phenyl-N-(pyridine-2-ylmethylen)piperazin-1-amine] | 16 | 117 to 119 °C |  |
| C(=N\N1CCN(c2ccccc2)CC1)/c1ccc2ccccc2c1 [Compound 2h, (E)-N-(Naphthalene-2-ylmethylen)-4-phenylpiperazin-1-amine] | < 1 | 195 to 198 °C (dec.) |  |
| COc1cc(/C=N/N2CCN(c3ccccc3)CC2)cc(OC)c1OC [Compound 1l, (E)-4-Phenyl-N-(3,4,5-trimethoxybenzylidene)piperazin-1-amine] | 41 | 93 to 98 °C |  |
| Oc1cccc(/C=N/N2CCN(c3ccccc3)CC2)c1 [Compound 1e, (E)-3-((4-Phenylpiperazin-1-ylimino)methyl)phenol] | 71 | 190 °C (dec.) |  |
| O=[N+]([O-])c1ccccc1/C=N/N1CCN(c2ccccc2)CC1 [Compound 1p, (E)-N-(2-Nitrobenzylidene)-4-phenylpiperazin-1-amine] | 60 | 103 to 106 °C |  |

| Compound | inhibition at 200 µM (murine ATGL; [1]) [%] | melting point | further results |
| --- | --- | --- | --- |
| Oc1ccc(/C=N/N2CCC(c3ccccc3)CC2)c(O)c1 [Compound 3h, (E)-4-((4-Phenylpiperidine-1-ylimino)methyl)benzene-1,3-diol] | 81 | 139 to 142 °C | IC50 (murine ATGL): 40 µM |
| CN(CCO)c1ccc(/C=N/N2CCN(c3ccccc3)CC2)cc1 [Compound 1w, (E)-2-(Methyl(4-((4-phenylpiperazin-1-ylimino)methyl)phenyl)amino)ethanol] | 5 |  |  |
| Oc1ccc(CN2CCN(c3ccccc3)CC2)cc1O [Compound 8, 4-((4-Phenylpiperazin-1-yl)methyl)benzene-1,2-diol] |  | 100 to 102 °C | inhibition at 200 µM (murine ATGL): 20%; biological activity against ATGL (in words) (murine ATGL): biologically inactive |
| Clc1ccc(/C=N/N2CCN(c3ccccc3)CC2)c(Cl)c1 [Compound 1o, (E)-N-(2,4-Dichlorobenzylidene)-4-phenylpiperazin-1-amine] | 42 | 113 to 115 °C |  |
| CCCC/C=N/N1CCN(c2ccccc2)CC1 [Compound 2a, (E)-N-Pentyliden-4-phenylpiperazin-1-amine] | 12 |  |  |
| COc1ccc(C(=O)NN2CCN(c3ccccc3)CC2)cc1OC [Compound 10, 3,4-Dimethoxy-N-(4-phenylpiperazin-1-yl)benzamide] | 38 |  | biological activity against ATGL (in words) (murine ATGL): inactive |
| C(=N\N1CCN(c2ccccc2)CC1)/c1cccc2ccccc12 [Compound 2j, (E)-N-(Naphthalene-1-methylen)-4-phenylpiperazin-1-amine] | 49 | 118 °C |  |
| C(=N\N1CCN(c2ccccc2)CC1)/C1CCCCC1 [Compound 2c, (E)-N-(Cyclohexylmethylen)-4-phenylpiperazin-1-amine] | 49 | 69 to 71 °C |  |
| Oc1ccc(/C=N/N2CCN(CCc3ccccc3)CC2)c(O)c1 [Compound 3e, (E)-4-((4-Phenethylpiperazin-1-ylimino)methyl)benzene-1,3-diol] | 14 | 211 to 214 °C |  |
| C(=N\N1CCN(c2ccccc2)CC1)/c1cccnc1 [Compound 2f, (E)-4-Phenyl-N-(pyridine-3-ylmethylen)piperazin-1-amine] | 46 | 111 to 113 °C |  |
| CCC/C=C/C=N/N1CCN(c2ccccc2)CC1 [Compound 2b, (E)-N-((E)-Hex-2-enyliden)-4-phenylpiperazin-1-amine] | 12 | 48 °C |  |
| Oc1ccc(/C=N/N2CCN(c3ccccc3)CC2)cc1 [Compound 1g, (E)-4-((4-Phenylpiperazin-1-ylimino)methyl)phenol] | 85 | 192 °C (dec.) |  |
| Oc1ccccc1/C=N/N1CCN(c2ccccc2)CC1 [Compound 1f, (E)-2-((4-Phenylpiperazin-1-ylimino)methyl)phenol] | 64 | 138 to 142 °C |  |
| Oc1ccc(/C=N/N2CCN(C3CCCC3)CC2)c(O)c1 [Compound 3g, (E)-4-((4-Cyclopentylpiperazin-1-ylimino)methyl)benzene-1,3-diol] | 36 | 237 to 239 °C (dec.) |  |
| Brc1ccccc1/C=N/N1CCN(c2ccccc2)CC1 [Compound 1q, (E)-N-(2-Bromobenzylidene)-4-phenylpiperazin-1-amine] | 73 | 88 to 90 °C |  |
| C1=C(/C=N/N2CCN(c3ccccc3)CC2)CCCC1 [Compound 2d, (E)-N-(Cyclohexenylmethylen)-4-phenylpiperazin-1-amine] | 58 | 118 to 120 °C | biological activity against ATGL (in words) (murine ATGL): moderate activity |
| Oc1ccc(/C=N/N2CCN(c3ccc(F)cc3)CC2)c(O)c1 [Compound 3b, (E)-4-((4-(4-Fluorophenyl)piperazin-1-ylimino)methyl)benzene-1,3-diol] | 78 | 176 to 178 °C | IC50 (murine ATGL): 50 µM |
| (E)-4-Phenyl-N-(4-propoxybenzylidene)piperazin-1-amine [Compound 1i] |  |  | I200 (%) (murine ATGL; [1]): 14%; IC50 (%) (murine ATGL): >200 |
| (E)-3-((4-Phenylpiperazin-1-ylimino)methyl)benzonitrile [Compound 1r] |  |  | I200 (%) (murine ATGL; [1]): 60%; IC50 (%) (murine ATGL): 120 |
